Experimental data published in ChEMBL document CHEMBL1201862, “PubChem BioAssay data set” (2004).
Active and inactive are the calls of the source.

Tests used:
[1] = M. tuberculosis H37Rv growth inhibitors, H37Rv strain (AID 1626); format: functional
[2] = target: T1, Ubiquitin-conjugating enzyme E2 N (Homo sapiens, UniProt P61088); format: functional;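 also: Dose-response confirmation in a TR-FRET assay detecting UBC13-driven polyubiquitin chain formation, inhibition measured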
T1 sequence (P61088 whole entry): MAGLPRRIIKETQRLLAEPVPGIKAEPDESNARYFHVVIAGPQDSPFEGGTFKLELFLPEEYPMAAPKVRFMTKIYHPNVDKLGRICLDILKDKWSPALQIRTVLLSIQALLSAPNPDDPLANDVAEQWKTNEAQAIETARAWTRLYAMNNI

[3] = target: T2, Apoptotic protease-activating factor 1 (Homo sapiens, UniProt O14727); format: functional
T2 sequence (O14727 whole entry): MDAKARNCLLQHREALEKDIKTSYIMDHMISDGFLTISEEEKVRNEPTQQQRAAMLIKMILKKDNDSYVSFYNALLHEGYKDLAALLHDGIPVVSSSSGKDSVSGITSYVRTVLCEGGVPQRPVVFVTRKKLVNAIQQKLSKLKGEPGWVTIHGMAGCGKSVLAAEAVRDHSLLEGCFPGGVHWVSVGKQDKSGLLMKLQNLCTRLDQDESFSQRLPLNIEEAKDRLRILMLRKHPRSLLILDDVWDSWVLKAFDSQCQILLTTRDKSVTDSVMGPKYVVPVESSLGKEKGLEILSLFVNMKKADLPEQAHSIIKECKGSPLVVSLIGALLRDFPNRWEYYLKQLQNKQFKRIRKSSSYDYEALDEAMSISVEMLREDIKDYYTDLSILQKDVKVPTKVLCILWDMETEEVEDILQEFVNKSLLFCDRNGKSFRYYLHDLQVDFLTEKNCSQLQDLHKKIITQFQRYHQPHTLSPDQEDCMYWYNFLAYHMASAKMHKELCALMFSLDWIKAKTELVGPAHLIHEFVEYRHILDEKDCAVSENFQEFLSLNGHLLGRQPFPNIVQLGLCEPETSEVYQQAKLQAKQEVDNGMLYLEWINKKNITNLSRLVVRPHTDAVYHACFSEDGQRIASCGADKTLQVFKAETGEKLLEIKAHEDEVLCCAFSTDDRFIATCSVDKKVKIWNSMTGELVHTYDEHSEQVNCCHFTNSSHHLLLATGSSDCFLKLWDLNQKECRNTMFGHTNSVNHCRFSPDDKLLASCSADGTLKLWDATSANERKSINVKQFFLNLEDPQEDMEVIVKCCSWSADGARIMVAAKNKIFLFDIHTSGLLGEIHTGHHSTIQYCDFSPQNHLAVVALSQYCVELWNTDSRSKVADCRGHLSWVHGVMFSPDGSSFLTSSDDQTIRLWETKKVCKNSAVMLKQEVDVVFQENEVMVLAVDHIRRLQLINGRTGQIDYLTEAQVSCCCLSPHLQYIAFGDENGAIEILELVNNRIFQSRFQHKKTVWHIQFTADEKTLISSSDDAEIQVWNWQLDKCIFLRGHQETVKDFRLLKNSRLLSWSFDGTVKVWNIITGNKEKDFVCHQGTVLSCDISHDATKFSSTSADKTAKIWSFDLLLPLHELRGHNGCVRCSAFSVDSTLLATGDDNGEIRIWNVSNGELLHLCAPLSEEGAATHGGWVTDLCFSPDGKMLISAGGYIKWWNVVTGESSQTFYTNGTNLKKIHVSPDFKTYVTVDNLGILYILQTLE

[4] = target: T3, Calpain-2 catalytic subunit (Sus scrofa, UniProt P43367); experiment: pig calpain II inhibitor potency, dose response, biochemical, fluorogenic peptide substrate (AID 1420); format: functional
T3 sequence (P43367 whole entry): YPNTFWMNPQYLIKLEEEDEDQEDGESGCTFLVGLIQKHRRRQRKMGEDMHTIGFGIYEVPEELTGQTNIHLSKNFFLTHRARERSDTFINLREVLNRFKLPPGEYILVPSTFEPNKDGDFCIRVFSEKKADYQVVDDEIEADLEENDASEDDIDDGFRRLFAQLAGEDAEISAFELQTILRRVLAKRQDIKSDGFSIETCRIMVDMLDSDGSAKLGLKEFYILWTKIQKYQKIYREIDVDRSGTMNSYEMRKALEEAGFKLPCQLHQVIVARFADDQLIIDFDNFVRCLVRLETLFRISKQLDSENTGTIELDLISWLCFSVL

[5] = target: T4, Rac GTPase-activating protein 1 (Homo sapiens, UniProt Q9H0H5); experiment: MgcRacGAP GTPase-activating activity inhibitors, confirmation, biochemical, ADP Hunter fluorescence, primary and confirmatory (AID 624330); format: functional
T4 sequence (Q9H0H5 whole entry): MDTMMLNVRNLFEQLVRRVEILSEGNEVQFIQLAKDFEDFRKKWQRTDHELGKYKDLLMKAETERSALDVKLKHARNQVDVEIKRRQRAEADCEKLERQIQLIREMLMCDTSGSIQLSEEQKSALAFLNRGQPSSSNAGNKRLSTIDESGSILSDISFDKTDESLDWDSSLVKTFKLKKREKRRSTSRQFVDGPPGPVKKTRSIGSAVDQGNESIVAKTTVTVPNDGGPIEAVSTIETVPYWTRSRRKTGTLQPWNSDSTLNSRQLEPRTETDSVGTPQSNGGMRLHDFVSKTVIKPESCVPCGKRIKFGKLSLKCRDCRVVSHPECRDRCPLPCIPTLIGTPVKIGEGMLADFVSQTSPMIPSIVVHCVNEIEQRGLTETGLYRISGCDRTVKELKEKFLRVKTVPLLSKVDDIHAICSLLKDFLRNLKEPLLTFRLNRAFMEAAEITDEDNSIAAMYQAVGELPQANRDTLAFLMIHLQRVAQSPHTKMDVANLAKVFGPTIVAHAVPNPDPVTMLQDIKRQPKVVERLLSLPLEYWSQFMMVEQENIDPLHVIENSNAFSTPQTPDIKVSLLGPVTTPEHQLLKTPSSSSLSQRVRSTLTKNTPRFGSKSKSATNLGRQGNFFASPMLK

[6] = target: SWI/SNF-related matrix-associated actin-dependent regulator of chromatin subfamily A member 2 (Homo sapiens, UniProt P51531); experiment: Luminescence-based cell-based high throughput dose response assay to identify activators of the function of SWI/SNF related, matrix associated, actin dependent regulator of chromatin, subfamily a, member 2 (SMARCA2, BRM).; format: functional
[7] = Counterscreen for activators of the function of SWI/SNF related, matrix associated, actin dependent regulator of chromatin, subfamily a, member 2 (SMARCA2, BRM): Luminescence-based cell-based high throughput dose response assay to identify non-selective compounds using the VP16 reporter assay.; format: functional
[8] = target: Major prion protein (Homo sapiens, UniProt P04156); format: functional, cell-based
[9] = cells
[10] = HepG2 cell cytotoxicity, dose response, cytotoxicity control, ATP luminescence, cherry-pick, activator set 2 (AID 1053143); format: functional, cell-based
[11] = human group III sPLA2 inhibitors, dose response, biochemical, QFRET, IC50 (AID 743457);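 also: green fluorescence rise as the enzyme cleaves BODIPY PC-A2 in liposomes; potency for inhibition of the enzyme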
[12] = inhibitors of PGC1a acetylation in cells, dose response, cell-based, cherry-picked samples (AID 720514); format: functional;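 also: potency may reflect raised or lowered acetylation signal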
[13] = growth suppression of PTEN-null colon cells, dose response, cell-based, HCT116 PTEN knockout (AID 1047); format: functional;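 also: HCT116 colon tumor cells with PTEN knocked out; cells exposed to compound for 60 hours before readout; potency for loss of cell viability measured by luminescence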
[14] = growth suppression of beta-catenin-knockout colon cells, dose response, cell-based, HCT116, human colon tumor (AID 1045); format: functional;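 also: HCT116 colon tumor cells with beta catenin knocked out; cells exposed to compound for 60 hours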
[15] = Luminescence Cell-Based Dose Retest to Confirm Inhibitors of Cancer Stem Cells. [Related pubchem assays (depositor defined):AID2717, AID2721]; format: functional; details: Homo sapiens
[16] = target: T5, Protein Tat (Human immunodeficiency virus type 1 group M subtype B (isolate HXB2)(HIV-1), UniProt P04608); format: functional;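 also: tat binding to TAR RNA read out by fluorescence polarization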
T5 sequence (P04608 whole entry): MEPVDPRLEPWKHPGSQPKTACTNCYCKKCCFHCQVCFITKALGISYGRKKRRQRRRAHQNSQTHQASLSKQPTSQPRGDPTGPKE

[17] = inhibitors of Vif binding to APOBEC3G peptide, primary screen, biochemical, TR-FRET, GST-Vif 1-94, biotin-A3G peptide, dose response retest (AID 1117319); format: functional;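 also: TR-FRET signal of purified GST-Vif binding a biotinylated A3G peptide; inhibitors lower the FRET signal by blocking Vif and A3G binding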
[18] = insulin promoter down-regulators in MIN6 cells, imaging, high-content screening, mouse beta cells (AID 1628); format: functional
[19] = cytotoxicity in MIN6 insulinoma cells, dose response, cytotoxicity control, cell-based, mouse insulinoma (AID 2122); format: functional;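 also: confirmatory high-throughput counterscreen run to flag cytotoxic compounds; mouse MIN-6 beta cells carrying an insulin promoter eGFP reporter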
[20] = Shn3 3'UTR reporter inhibitors, dose response, cell-based, Clone20 osteoblasts, firefly luciferase, cherry-picked (AID 624132); format: functional;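 also: firefly luciferase luminescence from reporter carrying the Shn3 3'UTR in osteoblasts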
[21] = control 3'UTR Renilla luciferase suppression, dose response, counter-screen for Shn3 inhibitor project, cell-based, Clone20-Shn3RL, cherry-picked (AID 624133); format: functional
[22] = target: T6, Oxysterols receptor LXR-beta (Homo sapiens, UniProt P55055); format: functional, cell-based;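 also: agonist activity at LXR measured by a cell-based luminescence readout across a dose range, run as a counterscreen for daf-12 agonists; HEK293 cells with Gal4-LXR fusion and GAL4-driven luciferase reporter; potency for activation of Gal4-LXR reporter so compounds are agonists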
T6 sequence (P55055 whole entry): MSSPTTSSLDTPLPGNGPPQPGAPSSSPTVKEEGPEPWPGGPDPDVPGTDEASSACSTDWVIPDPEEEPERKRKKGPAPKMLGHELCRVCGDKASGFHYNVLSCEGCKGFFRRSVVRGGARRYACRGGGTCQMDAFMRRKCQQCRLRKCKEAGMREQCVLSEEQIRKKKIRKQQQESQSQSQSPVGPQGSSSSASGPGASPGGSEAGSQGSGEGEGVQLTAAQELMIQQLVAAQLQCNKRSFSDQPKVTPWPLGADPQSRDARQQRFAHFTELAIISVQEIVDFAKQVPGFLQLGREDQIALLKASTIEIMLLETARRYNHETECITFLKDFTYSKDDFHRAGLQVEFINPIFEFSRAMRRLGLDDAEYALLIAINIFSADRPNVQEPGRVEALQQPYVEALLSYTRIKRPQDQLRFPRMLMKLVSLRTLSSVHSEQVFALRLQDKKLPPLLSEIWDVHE

[23] = A549 cell cytotoxicity, dose response, cytotoxicity control, plate reader, cherry-pick, antagonist series (AID 743412); format: functional, cell-based
[24] = LGR2 antagonists, dose response, cell-based, HEK293, CRE-luciferase reporter, cherry pick, set 2 (AID 743343); format: functional;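 also: transfected cells were stimulated with diluted bursicon conditioned medium after compound addition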
[25] = MC4R antagonists, dose response, counter-screen for LGR2 antagonist project, cell-based, plate reader, cherry pick (AID 743444); format: functional;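 also: transfected HEK 293 cells stimulated with alpha-MSH peptide; potency of inhibitors of the alpha-MSH evoked signal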

COCC(=O)Nc1ccc(Br)c(C)c1
IC50 [1]: > 100 µM (active)

COc1ccc(C(CNC(=O)COc2c(C)cc(C)cc2C)N2CCOCC2)cc1 (stereo unspecified)
IC50 [2]: > 20 µM (inactive)
IC50 [3]: > 100 µM (inactive)

COc1ccc(NC(C)c2cc(Cl)ccc2O)cc1 (stereo unspecified)
IC50 [1]: > 100 µM (active)
IC50 [4]: 13.9 µM (not active)
IC50 [5]: 69.1 µM (active)

O=C(CCCc1ccccc1)NCc1ccccc1
EC50 [6]: > 91.3 µM (inactive)
EC50 [7]: > 91.3 µM (inactive)

COC(=O)CSc1nc(Cc2ccccc2)nc2ccccc12
IC50 [8]: 3.29 µM (active)
IC50 [9]: > 138 µM (inactive)

Cc1cc(NC(=O)c2ccccc2)ncc1NC(=O)c1ccco1
AC50 [10]: 26 µM (active)

Cc1ccc2nc(NNC(=O)c3ccc4c(c3)OCCO4)sc2c1
IC50 [11]: > 122 µM (inactive)

Cc1oc2c(c1C(=O)O)C(=O)c1ccccc1C2=O
IC50 [3]: 11.4 µM (active)

CCc1ccc(NC(=O)CSc2nnc(-c3cnccn3)n2Cc2ccco2)cc1
AC50 [12]: 32.5 µM (active)

COCCNc1nnc(SC(C)C(=O)Nc2ccc(-c3nc4ccc(C)cc4s3)cc2)s1 (stereo unspecified)
EC50 [13]: 30 µM (active)
EC50 [14]: 39.1 µM (active)
AC50 [15]: 10.5 µM (active)
IC50 [16]: > 100 µM (active)
IC50 [17]: > 50 µM (active)

NC(=O)c1ccc(-c2ccc(Br)cc2)o1
IC50 [8]: 7.42 µM (active)
IC50 [9]: > 138 µM (inactive)

COc1ccc(C(NC(=O)c2c(F)c(F)c(F)c(F)c2F)c2ccccc2)cc1 (stereo unspecified)
IC50 [18]: 1.79 µM (active)
IC50 [19]: 1.7 µM (active)
EC50 [13]: 27.4 µM (active)
EC50 [14]: 16.8 µM (active)
AC50 [12]: 4.77 µM (active)

CCCc1ccc(-c2cc(C(=O)NC3=NCCS3)c3ccccc3n2)cc1
IC50 [1]: > 100 µM (active)

N#C/C(=C/c1cccs1)c1nc2ccccc2[nH]1
EC50 [6]: > 91.1 µM (inactive)
EC50 [7]: > 91.1 µM (inactive)

O=C(Nc1nc(-c2cccc(Br)c2)cs1)Oc1ccccc1
EC50 [6]: > 91.2 µM (inactive)
EC50 [7]: > 91.2 µM (inactive)

O=C1/C(=C/c2ccccn2)SC(=S)N1Nc1ncc(C(F)(F)F)cc1Cl
AC50 [20]: 49.9 µM (active)
AC50 [21]: 33.1 µM (active)
IC50 [11]: 47.8 µM (inactive)

O=C(Nc1ncccc1O)c1cc2ccccc2o1
AC50 [10]: 26 µM (active)
EC50 [22]: > 67.6 µM (inactive)

N#C[C@@H]1[C@H](c2ccc(C#CC3CCCCC3)cc2)[C@@H](CO)N1S(=O)(=O)c1ccccc1
AC50 [23]: 27.9 µM (active)
AC50 [24]: 12.8 µM (active)
AC50 [25]: 8.18 µM (active)

Cc1nc2ccc(Br)cc2c(-c2ccccc2)c1C(=O)O
IC50 [8]: 5.47 µM (active)
IC50 [9]: > 138 µM (inactive)
